Consider five compounds from ChEMBL document CHEMBL3390830, “Targeting epigenetic modifiers: Inhibitors of histone methyltransferases” (Medchemcomm, 2010).

Molecules are shown by their SMILES.

Experiment [1] has as its target T1, Histone-lysine N-methyltransferase EHMT2 (Homo sapiens, UniProt Q96KQ7).
T1 sequence (Q96KQ7 whole entry): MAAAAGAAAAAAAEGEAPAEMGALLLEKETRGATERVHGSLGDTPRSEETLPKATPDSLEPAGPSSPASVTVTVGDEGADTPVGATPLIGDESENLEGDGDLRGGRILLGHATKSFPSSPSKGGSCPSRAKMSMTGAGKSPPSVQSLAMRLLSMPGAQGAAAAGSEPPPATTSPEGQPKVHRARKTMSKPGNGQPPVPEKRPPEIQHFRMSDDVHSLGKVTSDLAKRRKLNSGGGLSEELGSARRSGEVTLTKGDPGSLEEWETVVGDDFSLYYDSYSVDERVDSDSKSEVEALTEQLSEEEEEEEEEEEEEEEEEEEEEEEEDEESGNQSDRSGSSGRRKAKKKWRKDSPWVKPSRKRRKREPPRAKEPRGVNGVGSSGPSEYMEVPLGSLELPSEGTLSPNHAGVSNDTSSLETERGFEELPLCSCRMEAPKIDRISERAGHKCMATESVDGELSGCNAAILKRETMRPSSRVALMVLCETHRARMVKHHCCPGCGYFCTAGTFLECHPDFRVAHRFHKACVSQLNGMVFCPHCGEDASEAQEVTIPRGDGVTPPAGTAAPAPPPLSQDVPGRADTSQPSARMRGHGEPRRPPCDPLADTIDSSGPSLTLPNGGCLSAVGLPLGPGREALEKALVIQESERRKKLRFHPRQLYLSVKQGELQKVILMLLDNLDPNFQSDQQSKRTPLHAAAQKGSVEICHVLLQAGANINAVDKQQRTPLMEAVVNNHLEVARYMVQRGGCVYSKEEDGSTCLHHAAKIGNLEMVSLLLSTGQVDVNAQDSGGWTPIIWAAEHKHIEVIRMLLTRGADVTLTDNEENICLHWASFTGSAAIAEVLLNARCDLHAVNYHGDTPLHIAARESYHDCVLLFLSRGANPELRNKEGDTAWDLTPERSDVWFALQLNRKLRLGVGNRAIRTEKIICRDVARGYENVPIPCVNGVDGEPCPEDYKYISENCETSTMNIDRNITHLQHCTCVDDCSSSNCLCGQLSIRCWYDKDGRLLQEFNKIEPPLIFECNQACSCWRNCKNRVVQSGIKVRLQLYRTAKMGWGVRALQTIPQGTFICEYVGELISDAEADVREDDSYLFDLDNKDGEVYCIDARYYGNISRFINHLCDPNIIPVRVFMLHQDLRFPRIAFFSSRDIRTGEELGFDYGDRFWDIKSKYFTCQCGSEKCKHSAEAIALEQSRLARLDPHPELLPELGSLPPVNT
The experiment can be described thus: Inhibition of G9a (685 to 1000) (unknown origin) expressed in Escherichia coli BL21 assessed as reduction of H3K9me2 level by DELFIA assay.

The target in experiment [2] is T2, Protein arginine N-methyltransferase 1 (Homo sapiens, UniProt Q99873). The experiment in a line: Inhibition of GST-fused PRMT1 (unknown origin) expressed in Escherichia coli BL21 assessed as reduction of asymmetric H4R3me2 level by DELFIA assay.
T2 sequence (Q99873 whole entry, the tested form may be a part): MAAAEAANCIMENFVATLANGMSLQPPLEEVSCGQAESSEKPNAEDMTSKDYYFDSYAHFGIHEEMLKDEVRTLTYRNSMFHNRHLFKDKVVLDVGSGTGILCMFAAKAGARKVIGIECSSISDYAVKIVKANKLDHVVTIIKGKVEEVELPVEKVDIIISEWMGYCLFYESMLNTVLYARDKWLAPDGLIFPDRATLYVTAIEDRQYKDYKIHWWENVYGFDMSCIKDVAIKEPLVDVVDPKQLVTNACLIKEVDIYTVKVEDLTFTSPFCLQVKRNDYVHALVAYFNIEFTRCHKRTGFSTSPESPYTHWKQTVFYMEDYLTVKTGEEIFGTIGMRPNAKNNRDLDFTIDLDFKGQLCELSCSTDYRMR
In experiment [3] the target is T3, NAD-dependent protein deacetylase sirtuin-1 (Homo sapiens, UniProt Q96EB6).
T3 sequence (Q96EB6 whole entry): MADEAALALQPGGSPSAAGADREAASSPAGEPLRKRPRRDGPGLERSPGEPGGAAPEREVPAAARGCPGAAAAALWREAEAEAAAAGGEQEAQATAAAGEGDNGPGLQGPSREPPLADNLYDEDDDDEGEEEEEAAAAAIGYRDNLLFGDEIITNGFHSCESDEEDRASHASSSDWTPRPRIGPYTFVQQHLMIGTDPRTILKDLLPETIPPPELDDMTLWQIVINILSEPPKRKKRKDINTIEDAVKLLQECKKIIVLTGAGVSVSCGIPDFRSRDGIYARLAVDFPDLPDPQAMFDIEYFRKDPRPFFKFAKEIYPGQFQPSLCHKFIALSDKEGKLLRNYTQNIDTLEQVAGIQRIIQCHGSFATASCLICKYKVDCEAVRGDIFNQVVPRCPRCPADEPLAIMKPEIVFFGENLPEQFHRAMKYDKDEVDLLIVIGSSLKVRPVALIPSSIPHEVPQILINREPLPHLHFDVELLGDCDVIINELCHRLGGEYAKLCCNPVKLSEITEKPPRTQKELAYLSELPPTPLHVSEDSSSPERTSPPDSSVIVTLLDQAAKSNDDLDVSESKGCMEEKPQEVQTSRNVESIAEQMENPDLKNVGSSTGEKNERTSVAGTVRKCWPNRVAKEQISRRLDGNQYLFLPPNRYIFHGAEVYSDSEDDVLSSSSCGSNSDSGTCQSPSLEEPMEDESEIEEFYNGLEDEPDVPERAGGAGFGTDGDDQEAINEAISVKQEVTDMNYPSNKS
The experiment can be described thus: Inhibition of recombinant human N-terminal GST-tagged full length SIRT1 expressed in Escherichia coli BL21(DE3) using ZMAL as substrate after 4 hrs by homogeneous fluorescent deacetylase assay.

In experiment [4] the target is T2, Protein arginine N-methyltransferase 1. The experiment can be described thus: Inhibition of recombinant human GST-tagged PRMT1 assessed as inhibition of histone methylation.
Experiment [5] addresses Histone-lysine N-methyltransferase Su(var)3-9 (Drosophila melanogaster, UniProt P45975). The experiment in a line: Inhibition of Drosophila melanogaster Su(var)3-9.
The target in experiment [6] is T1, Histone-lysine N-methyltransferase EHMT2. The experiment can be described thus: Inhibition of G9a (unknown origin).
In experiment [7] the target is T2, Protein arginine N-methyltransferase 1. The experiment can be described thus: Inhibition of human PRMT1 using GST-tagged Npl3 as substrate preincubated for 15 mins followed by enzyme addition measured after 1 hr by colorimetric assay.

Broadly, the IC50 is the concentration needed to halve the response being measured.

Histone-lysine N-methyltransferase Su(var)3-9, sequence (P45975 whole entry): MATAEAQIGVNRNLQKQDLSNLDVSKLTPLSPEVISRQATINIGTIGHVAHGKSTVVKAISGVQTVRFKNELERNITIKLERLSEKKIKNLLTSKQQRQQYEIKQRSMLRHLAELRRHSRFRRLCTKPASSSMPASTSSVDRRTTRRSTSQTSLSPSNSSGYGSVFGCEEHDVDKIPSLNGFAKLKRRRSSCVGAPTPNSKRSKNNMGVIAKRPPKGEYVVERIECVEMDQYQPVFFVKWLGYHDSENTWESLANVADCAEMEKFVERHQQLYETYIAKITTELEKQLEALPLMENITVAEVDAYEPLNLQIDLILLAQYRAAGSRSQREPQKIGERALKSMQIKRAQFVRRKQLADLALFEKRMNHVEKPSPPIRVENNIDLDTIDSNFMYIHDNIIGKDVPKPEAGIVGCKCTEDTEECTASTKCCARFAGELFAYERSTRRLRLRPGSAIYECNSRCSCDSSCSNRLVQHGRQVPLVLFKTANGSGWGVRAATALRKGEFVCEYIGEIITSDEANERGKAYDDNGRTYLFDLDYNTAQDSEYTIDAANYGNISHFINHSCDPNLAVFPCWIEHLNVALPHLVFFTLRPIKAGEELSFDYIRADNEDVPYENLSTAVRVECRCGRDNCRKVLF

For the compound `COc1ccc(C(=O)Oc2ccc(CCn3c(NC(=O)c4ccc(C(F)(F)F)cc4)nc4cc(C(=O)O)ccc43)cc2)cc1`, the IC50 stood at 5 µM in experiment [1] and 6 µM in experiment [2].
In the case of `O=C(Nc1ccc2c(O)cc(S(=O)(=O)O)cc2c1)Nc1ccc2c(O)cc(S(=O)(=O)O)cc2c1`, the IC50 in experiment [3] was determined as 32 µM.
Take `COc1ccc(/N=N/c2c(S(=O)(=O)O)cc3cc(Cc4nc(Cl)nc(Cl)n4)ccc3c2O)cc1`: in experiment [4], the IC50 worked out at 4 µM.
For the compound `CN1C(=O)[C@@]23C[C@]4([C@]56C[C@@]78SS[C@@](CO)(C(=O)N7[C@H]5Nc5ccccc56)N(C)C8=O)c5ccccc5N[C@@H]4N2C(=O)[C@]1(CO)SS3` [CHAETOCIN], the IC50 in experiment [5] stood at 0.8 µM; in experiment [6], 2.5 µM.
For the compound `O=C1OC2(c3ccccc31)c1cc(Br)c(O)c(Br)c1Oc1c2cc(Br)c(O)c1Br` [EOSIN], in experiment [7], inhibition was half-maximal at 1 µM (IC50).
